Consider five compounds from patent US8778896B2, “Levoisovalerylspiramycin I, II or III, preparations, preparation methods and uses thereof” (Shenyang Tonglian Group Co., Ltd., priority 2010, dated 2014).

The subject of data set [1] is streptococcus pneumoniae18. Description: Curative effect on mouse with abdominal infection (ED50). The format is in vivo, streptococcus pneumoniae. Conditions: streptococcus pneumoniae18, challenging dose 9.6 × 10^4 CFU/0.5 ml, deaths in 7 days, Bliss. On the procedure:
(§1) Test method: preparation of infection bacterial liquid: taking out the test bacterial liquid which is kept in a refrigerator at −80[…] to room temperature for about 1 h, then inoculating streptococcus pneumonia, pyogenic streptococcus and enterococcus absorbing 0.1 ml bacterial liquid respectively to 2 ml MH broth (add 10% inactivated horse serum), and inoculating 0.1 ml bacterial liquid of staphylococcus aureus to 2 ml MH broth according to the same method above; putting it in an incubator at 37[…] to be cultivated for 18 h, to obtain original bacterial liquid; diluting the original bacterial liquid with 5% gastric mucin to make animals infected with 100% lethal bacteria, to obtain infection bacterial liquid.
(§2) The clinical route of administration of carrimycin is proposed to be oral administration, thus intragastric administration is adopted in carrimychin test. Levoisovalerylspiramycin I (obtained in Embodiment 1) and of crystalline compound of levoisovalerylspiramycin I (prepared in Embodiment 27) are fed to animals via […].
(§3) After the mice are infected, respectively feed each mouse 0.2 ml via intragastric administration at 0.5 to 6 h, and they have no adverse reaction. Observe the number of deaths in 7 days, and calculate the 50% effective dose (ED50) of each drug for the infected mouse and compare the protective effect of drugs by Bliss program.

In data set [2] the test system is streptococcus pneumoniae3. The data set is described as above. The format is in vivo, streptococcus pneumoniae. The conditions noted are these: streptococcus pneumoniae3, challenging dose 6.4 × 10^4 CFU/0.5 ml, deaths in 7 days, Bliss. The protocol:
as §1, §2, §3

Data set [3] has as its system streptococcus pneumoniae57. The data set is described as above. The class given is in vivo, streptococcus pneumoniae. The conditions noted are these: streptococcus pneumoniae57, challenging dose 8.8 × 10^4 CFU/0.5 ml, deaths in 7 days, Bliss. The protocol:
as §1, §2, §3

Data set [4] deals with pyogenic streptococcus 102. Described as above. The class given is in vivo. Conditions: pyogenic streptococcus 102, challenging dose 7.8 × 10^4 CFU/0.5 ml, deaths in 7 days, Bliss. The protocol:
as §1, §2, §3

Data set [5] relates to pyogenic streptococcus 119. The data set is described as above. The format is in vivo. Conditions: pyogenic streptococcus 119, challenging dose 4.9 × 10^4 CFU/0.5 ml, deaths in 7 days, Bliss. The protocol: as §1, §2, §3
Data set [6] concerns pyogenic streptococcus 772. Described as above. The class given is in vivo. Conditions: pyogenic streptococcus 772, challenging dose 6.9 × 10^3 CFU/0.5 ml, deaths in 7 days, Bliss. On the procedure:
as §1, §2, §3

The subject of data set [7] is enterococcus32. The data set is described as above. The conditions noted are these: enterococcus32, challenging dose 5.4 × 10^4 CFU/0.5 ml, deaths in 7 days, Bliss. The class given is in vivo, enterococcus. The protocol:
as §1, §2, §3

The test system of data set [8] is staphylococcus aureus12. The data set is described as above. The format is in vivo, staphylococcus aureus. The conditions noted are these: staphylococcus aureus12, challenging dose 4.8 × 10^4 CFU/0.5 ml, deaths in 7 days, Bliss. The protocol:
as §1, §2, §3

For data set [9], the system named is staphylococcus aureus16. The data set is described as above. Conditions: staphylococcus aureus16, challenging dose 5.2 × 10^3 CFU/0.5 ml, deaths in 7 days, Bliss. The class given is in vivo, staphylococcus aureus. On the procedure:
as §1, §2, §3

Data set [10] relates to staphylococcus aureus21. Described as above. The class given is in vivo, staphylococcus aureus. The conditions noted are these: staphylococcus aureus21, challenging dose 4.2 × 10^4 CFU/0.5 ml, deaths in 7 days, Bliss. On the procedure:
as §1, §2, §3

Data set [11] has as its system staphylococcus aureus76. Described as above. The class given is in vivo, staphylococcus aureus. Conditions: staphylococcus aureus76, challenging dose 5.8 × 10^4 CFU/0.5 ml, deaths in 7 days, Bliss. The protocol: as §1, §2, §3
The test system of data set [12] is streptococcus pneumoniae3. In words: MIC against the infecting test organism. The class given is cell-based, streptococcus pneumoniae.
Data set [13] relates to streptococcus pneumoniae18. In words: MIC against the infecting test organism. The format is cell-based, streptococcus pneumoniae.
For data set [14], the system named is streptococcus pneumoniae57. In words: MIC against the infecting test organism. The format is cell-based, streptococcus pneumoniae.
Data set [15] has as its system pyogenic streptococcus 772. In words: MIC against the infecting test organism. The format is cell-based.
For data set [16], the system named is pyogenic streptococcus 102. In words: MIC against the infecting test organism. The class given is cell-based.
Data set [17] relates to pyogenic streptococcus 119. In words: MIC against the infecting test organism. The class given is cell-based.
Data set [18] relates to enterococcus32. In words: MIC against the infecting test organism. The class given is cell-based, enterococcus.
In data set [19] the test system is staphylococcus aureus16. Description: MIC against the infecting test organism. The class given is cell-based, staphylococcus aureus.
Data set [20] deals with staphylococcus aureus76. Description: MIC against the infecting test organism. The class given is cell-based, staphylococcus aureus.
For data set [21], the system named is staphylococcus aureus12. Description: MIC against the infecting test organism. The class given is cell-based, staphylococcus aureus.
Data set [22] concerns staphylococcus aureus21. In words: MIC against the infecting test organism. The class given is cell-based, staphylococcus aureus.
In data set [23] the test system is streptococcus pneumoniae (112). Description: Clinical isolates, agar double dilution method. The class given is cell-based.
In data set [24] the test system is pyogenic streptococcus (93). Description: Clinical isolates, agar double dilution method. The format is cell-based.
Data set [25] has as its system enterococcus (106). Description: Clinical isolates, agar double dilution method. The class given is cell-based.
In data set [26] the test system is staphylococcus aureus (155). In words: Clinical isolates, agar double dilution method. The format is cell-based.
Data set [27] has as its system S. epidermidis (115). In words: Clinical isolates, agar double dilution method. The format is cell-based.
Data set [28] relates to hemophilus influenzae (37). In words: Clinical isolates, agar double dilution method. The class given is cell-based.
Data set [29] relates to gonococcus (10). Description: Clinical isolates, agar double dilution method. The class given is cell-based.
Data set [30] relates to Chlamydia Trachomatis B/TW-5/OT. Description: Chlamydia in vitro MIC, McCoy cells, immunofluorescence. The format is cell-based. The conditions noted are these: 48 hours.
Data set [31] has as its system Chlamydia Trachomatis D/UW-3/Cx. Described as above. The class given is cell-based. The conditions noted are these: 48 hours.
The test system of data set [32] is Chlamydia Pneumoniae CWL-029. In words: Chlamydia in vitro MIC, HEp-2 cells, immunofluorescence. The class given is cell-based. Conditions: Chlamydia Pneumoniae CWL-029, HEp-2 cells, 72 hours.
Data set [33] relates to Mycoplasma Urealyticum and Mycoplasma Pneumoniae strains. Description: Mycoplasma in vitro MIC (U-PPLO broth). The format is cell-based. The conditions noted are these: determined 4 times, final MIC (24 h). The protocol: 1. Test methods: adding U-PPLO 0.8 ml to each pore of aseptic 12-pore cell culture plate (adding 0.9 ml to inoculum control pore and 1.0 ml to medium control pore).
2. Add 10^4CCU/ml Uu inoculum 0.1 ml to each experimental pore. The final dose in the pore is 10^3CCU/ml (the medium control pore will not be added with inoculum).
3. Divide into 3 groups (100 μg/ml, 10 μg/ml and 1 μg/ml antibiotic stock solution), Use aseptic Tip to add antibiotic for test to each pore: 100 μl, 50 μl, 25 μl, 12.5 μl according to the double degradation concentration gradient. (The inoculum and medium control pores will not be added with the antibiotic, and meanwhile the antibiotic control pore is arranged.)
4. Blend all pores evenly. Seal the culture plate by tapes and place it in a 37[…] box for culture.
5. On 17-24 hours after the test, observe and record the Uu growth situation. When Uu inoculum control pore presents a positive growth, the minimal antibiotic concentration, which can suppress the growth of Uu, is the MIC of sample.

The conditions of data set [34]: in vivo; cited from earlier work.
Data set [35] has as its system 12 strains of bacteria. Description: Protective effect on mouse infected with 12 strains of bacteria. The class given is in vivo. The conditions noted are these: in words. The protocol: as §1, §2, §3

Usually ED50 stands for the midpoint of the dose-response relation. High values mean weaker potency, low ones greater potency. The term MIC denotes the lowest concentration found to suppress growth. Low readings indicate a more susceptible organism, high ones a less susceptible organism.

For the compound acetyl spiramycin [reference compound], the ED50 stood at 37.93 mg/kg in [1]; 66.96 mg/kg in data set [2]; 398.01 mg/kg in data set [3]; 227.07 mg/kg in [4]; 117.53 mg/kg in [5]; 98.11 mg/kg in data set [6]. Also, the ED50 in [7] is 130.34 mg/kg; in [8] it was over 500 mg/kg; in data set [9], 43.58 mg/kg; in [10], over 500 mg/kg; in [11] it was 66.63 mg/kg. Further, the MIC in data set [12] came out at 0.5 µg/mL; in [13], 0.06 µg/mL; in data set [14], 1 µg/mL; in [15] it was 0.25 µg/mL; in data set [16], 0.5 µg/mL; in [17], 0.5 µg/mL. The MIC in data set [18] worked out at 1 µg/mL; in data set [19] it was 1 µg/mL; in data set [20], 1 µg/mL; in [21], 2048 µg/mL; in data set [22] it was 2048 µg/mL; in [30], 4 µg/mL. In addition, the values for the MIC in [31], in [32] and in [33] were 2 µg/mL, 0.5 µg/mL and 0.5 µg/mL, respectively. In addition, the MIC50 in data set [23] is 0.12 µg/mL; in data set [24] it was 0.25 µg/mL; in [25], 4 µg/mL; in data set [26] it was 64 µg/mL; in data set [27] it was 64 µg/mL; in data set [28] it was 0.12 µg/mL. Moreover, the MIC50 in data set [29] came to 4 µg/mL. The MIC90 in data set [23] is over 64 µg/mL; in data set [24], over 64 µg/mL; in data set [25] it was over 64 µg/mL; in [26], over 64 µg/mL; in [27] it was over 64 µg/mL; in data set [28] it was 4 µg/mL. The compound also showed an MIC90 in data set [29] of 8 µg/mL. For the same compound, the MIC range in [29] was 0.12 to 64 µg/mL.

For the compound spiramycin, the “absolute bioavailability by oral administration” value in data set [34] is 30˜40%.

Turning to `COC1C(O)CC(=O)OC(C)C/C=C/C=C/C(OC2CCC(N(C)C)C(C)O2)C(C)CC(CC=O)C1OC1OC(C)C(OC2CC(C)(O)C(OC(=O)CC(C)C)C(C)O2)C(N(C)C)C1O` (stereo not drawn) [crystal of isovalerylspiramycin I, levoisovalerylspiramycin I], the ED50 in [1] is on record as 8.65 mg/kg; in [2] it was 8.39 mg/kg; in data set [3], 12.82 mg/kg; in data set [4], 60.99 mg/kg; in data set [5] it was 54.58 mg/kg; in data set [6], 23.37 mg/kg. Also, the ED50 in [7] was found to be 62.11 mg/kg; in [8], 107.46 mg/kg; in data set [9], 21.33 mg/kg; in data set [10], 38.00 mg/kg; in data set [11] it was 22.26 mg/kg. Further, the “protective effect (curative effect) on infected mouse” value (from here on “protective effect (curative effect)”) in data set [35] (listed as crystalline compound of isovalerylspiramycin I) is “better protective effect”.

For `COC1C(OC(C)=O)CC(=O)OC(C)C/C=C/C=C/C(OC2CCC(N(C)C)C(C)O2)C(C)CC(CC=O)C1OC1OC(C)C(OC2CC(C)(O)C(OC(=O)CC(C)C)C(C)O2)C(N(C)C)C1O` (stereo not drawn) [crystal of isovalerylspiramycin II, levoisovalerylspiramycin II], the ED50 turned out to be 8.09 mg/kg in data set [1]; 7.69 mg/kg in [2]; 12.04 mg/kg in [3]; 58.00 mg/kg in [4]; 49.94 mg/kg in [5]; 21.90 mg/kg in data set [6]. Further, the ED50 is 56.16 mg/kg in data set [7]; 104.67 mg/kg in data set [8]; 16.18 mg/kg in data set [9]; 36.09 mg/kg in data set [10] (listed as crystal of isovalcrylspiramycin II); 18.71 mg/kg in data set [11]. In addition, in data set [35], the “protective effect (curative effect)” value is “good protective effect”.

`CCC(=O)OC1CC(=O)OC(C)C/C=C/C=C/C(OC2CCC(N(C)C)C(C)O2)C(C)CC(CC=O)C(OC2OC(C)C(OC3CC(C)(O)C(OC(=O)CC(C)C)C(C)O3)C(N(C)C)C2O)C1OC` (stereo not drawn) [crystal of isovalerylspiramycin III, levoisovalerylspiramycin III]: the ED50 is recorded as 8.68 mg/kg in data set [1]; 6.45 mg/kg in data set [2]; 11.08 mg/kg in data set [3]; 52.91 mg/kg in [4]; 49.94 mg/kg in data set [5] (listed as crystal of isovaletylspiramycin III); 22.81 mg/kg in data set [6]. The ED50 was found to be 65.89 mg/kg in data set [7]; 105.24 mg/kg in data set [8]; 19.29 mg/kg in [9]; 36.09 mg/kg in data set [10]; 18.71 mg/kg in [11]. Further, the “protective effect (curative effect)” value in [35] is given as “good protective effect”.
